Laboratory results taken from patent EP4818177A1, “TRICYCLIC DERIVATIVE INHIBITOR, AND PREPARATION METHOD AND USE THEREFOR” (Shanghai Hansoh Biomedical Co., Ltd., priority 2023, dated 2025).

Tests used:
[1] = test system: MTAP Knockout HCT116 cells; assay: Cell proliferation inhibition (CellTiter-Glo), MTAP knockout cells; type: cell-based; conditions: for Selectivity: HCT116 versus MTAP Knockout HCT116; for IC50: 72-240 hours incubation, CellTiter-Glo
Text: (§1) Test Example 2: Determination of the inhibitory effect of the compounds of the present invention on the proliferation activity of HCT116 and MTAP Knockout HCT116 cells.
(§2) 1. Experimental objective: to determine the inhibitory effect of the compound on the proliferation activity of HCT116 wild-type and HCT116 MTAP knockout cells. 2. Experimental instruments: Centrifuge (Eppendorf 5810R); microplate reader (BioTek Synergy H1 or PerkinElmer Envision); pipette (Eppendorf or Rainin). 3. Experimental reagents: HCT116 and MTAP Knockout HCT116 cells were purchased from Nanjing Cobioer; Cell Titer-Glo was purchased from Promega (Cat. No. G7573); McCoy' 5A was purchased from Gibco (Cat. No. 12330031); FBS was purchased from Gibco (Cat. No. 10091148); PBS was purchased from Gibco (Cat. No. 10010023); trypsin was purchased from Gibco (Cat. No. 25200056); cell culture plates were purchased from Corning (Cat. No. 3610). 4. Experimental methods: HCT116 and MTAP Knockout HCT116 cells were cultured in McCoy'5A medium containing 10% FBS until an appropriate cell density was reached. The cells were then collected and adjusted to a suitable concentration using complete medium. The cell suspension was seeded into a 96-well plate at 90 µL per well and allowed to adhere overnight in a 37°C, 5% CO2 incubator. Compound solutions of various concentrations were prepared using DMSO and culture medium, with a vehicle control set. The compound solutions were added to the 96-well plate at 10 µL per well, and the plate was incubated in a 37°C, 5% CO2 incubator for an additional 72-240 hours. After incubation, CellTiter-Glo solution was added, and the mixture was mixed uniformly by shaking, followed by incubation in the dark for 10 to 30 minutes. Luminescence was measured using a Synergy H1 or Envision microplate reader. 5. Experimental data processing method: The inhibition rate was calculated using the luminescence signal values, and the concentrations along with the inhibition rates were subjected to non-linear regression curve fitting using Graphpad Prism software to obtain the IC50 values.

HCT116 wild-type cells = assay: Cell proliferation inhibition (CellTiter-Glo), wild-type cells; type: cell-based; conditions: 72-240 hours incubation
Text: as §1, §2

in vivo = conditions: rat, po, 5 mg/kg
Description: (§3) Test Example 4: Determination of the pharmacokinetics of the compounds of the present invention in rats (plasma) after oral administration.
(§4) Study objective: SD rats were used as test animals to study the pharmacokinetic behaviour of the following example compounds in rats (plasma) after oral administration at a dose of 5 mg/kg. […] Test scheme 2.1 Test drugs: Vehicle formula: 0.5% CMC-Na (1% Tween 80); the examples of the present invention, prepared in house. 2.2 Test animals: 3 SD rats per group, male, purchased from Shanghai Bikai Keyi Biotechnology Co., Ltd., with animal license number (SCXK (Shanghai) 2018-0006, No.20180006037467). 2.3 Administration: 3 SD rats per group, male, were fasted overnight and then respectively administered PO at a dose of 5 mg/kg and a volume of 10 mL/kg. 2.4 Sample collection: 0.2 mL of blood was collected from the jugular vein of rats before administration and at 0, 0.25, 0.5, 1, 2, 4, 6, 8 and 24 h after administration, and placed in EDTA-K2test tubes, and the test tubes were centrifuged at 6,000 rpm at 4°C for 6 min to separate the plasma, which was stored at -80°C. The animals were fed 4 h after administration. 2.5 Sample treatment • 1) 160 uL of acetonitrile was added to 40 uL of plasma sample for precipitation, and after mixing, the mixture was centrifuged at 3,500 × g for 5-20 minutes. • 2) 100 uL of the treated supernatant solution was taken for LC/MS/MS analysis to determine the concentration of the test compounds. 2.6 Liquid phase analysis • Liquid phase conditions: Shimadzu LC-20AD pump; • Mass spectrometry conditions: AB Sciex API 4000 mass spectrometer; • Chromatographic column: phenomenex Gemiu 5 um C18 50 × 4.6 mm; • Mobile phase: solution A: 0.1% formic acid in water, solution B: methanol; • flow rate: 1.0 mL/min; Elution time: 0-4.0 min, with eluents as follows:
(§5) Experimental results and analysis: The main pharmacokinetic parameters were calculated using WinNonlin 8.2.

[2] = target: T1, PRMT5/MEP50-MTA protein complex (Homo sapiens, UniProt O14744); assay: Thermal shift assay: change in melting temperature of the PRMT5/MEP50-MTA protein complex; type: binding; conditions: compound 8 µM, PRMT5/MEP50 2 µM, MTA 2 µM; Tm minus DMSO vehicle control
T1 construct: purchased Viva Biotech
T1 sequence (O14744 whole entry): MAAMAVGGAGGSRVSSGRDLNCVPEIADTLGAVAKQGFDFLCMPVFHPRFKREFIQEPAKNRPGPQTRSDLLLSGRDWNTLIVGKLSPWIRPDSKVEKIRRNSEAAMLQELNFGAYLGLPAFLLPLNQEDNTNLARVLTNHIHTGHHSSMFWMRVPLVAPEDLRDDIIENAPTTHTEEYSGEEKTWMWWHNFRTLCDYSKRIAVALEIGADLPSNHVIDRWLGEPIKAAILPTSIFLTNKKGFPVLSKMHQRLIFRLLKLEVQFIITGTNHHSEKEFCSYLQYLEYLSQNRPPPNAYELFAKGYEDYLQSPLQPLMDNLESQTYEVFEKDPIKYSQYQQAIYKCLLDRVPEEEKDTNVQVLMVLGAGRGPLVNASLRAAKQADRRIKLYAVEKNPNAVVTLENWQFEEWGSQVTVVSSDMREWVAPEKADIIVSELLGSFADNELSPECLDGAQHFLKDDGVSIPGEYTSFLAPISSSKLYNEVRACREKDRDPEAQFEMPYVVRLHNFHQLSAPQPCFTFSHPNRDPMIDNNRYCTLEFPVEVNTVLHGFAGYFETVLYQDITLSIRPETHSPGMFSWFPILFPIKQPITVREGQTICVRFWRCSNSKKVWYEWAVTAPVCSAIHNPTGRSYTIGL
T1 sequence (Q9BQA1 whole entry partner): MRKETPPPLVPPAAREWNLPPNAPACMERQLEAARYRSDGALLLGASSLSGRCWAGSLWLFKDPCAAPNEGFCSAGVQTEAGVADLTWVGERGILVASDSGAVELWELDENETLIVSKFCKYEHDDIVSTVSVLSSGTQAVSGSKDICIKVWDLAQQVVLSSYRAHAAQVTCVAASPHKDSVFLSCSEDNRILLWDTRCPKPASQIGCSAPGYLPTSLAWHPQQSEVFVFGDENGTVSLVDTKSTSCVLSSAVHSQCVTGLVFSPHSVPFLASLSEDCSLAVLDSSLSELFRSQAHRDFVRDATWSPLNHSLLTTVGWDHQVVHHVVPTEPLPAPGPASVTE
Outline: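 Human PRMT5/MEP50 (2 µM) preincubated 30 min at room temperature in 50 mM HEPES, 10 mM DTT, 250 mM NaCl with 2 µM MTA and SYPRO Orange. Compound at 8 µM final, 10 min at room temperature, 2.5% DMSO vehicle control. Melt curve 25→95°C at 0.03°C/s gives Tm.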

hERG potassium channel = target: T2, hERG potassium channel (Homo sapiens, UniProt Q12809); assay: hERG potassium channel inhibitory activity assay (patch clamp, CHO-hERG cells); type: cell-based; conditions: tail current, read-out: inhibitory activity (IC50) against the cardiac hERG potassium channel
T2 construct: host or cells: CHO cells stably expressing hERG (CHO-hERG)
T2 sequence (Q12809 whole entry): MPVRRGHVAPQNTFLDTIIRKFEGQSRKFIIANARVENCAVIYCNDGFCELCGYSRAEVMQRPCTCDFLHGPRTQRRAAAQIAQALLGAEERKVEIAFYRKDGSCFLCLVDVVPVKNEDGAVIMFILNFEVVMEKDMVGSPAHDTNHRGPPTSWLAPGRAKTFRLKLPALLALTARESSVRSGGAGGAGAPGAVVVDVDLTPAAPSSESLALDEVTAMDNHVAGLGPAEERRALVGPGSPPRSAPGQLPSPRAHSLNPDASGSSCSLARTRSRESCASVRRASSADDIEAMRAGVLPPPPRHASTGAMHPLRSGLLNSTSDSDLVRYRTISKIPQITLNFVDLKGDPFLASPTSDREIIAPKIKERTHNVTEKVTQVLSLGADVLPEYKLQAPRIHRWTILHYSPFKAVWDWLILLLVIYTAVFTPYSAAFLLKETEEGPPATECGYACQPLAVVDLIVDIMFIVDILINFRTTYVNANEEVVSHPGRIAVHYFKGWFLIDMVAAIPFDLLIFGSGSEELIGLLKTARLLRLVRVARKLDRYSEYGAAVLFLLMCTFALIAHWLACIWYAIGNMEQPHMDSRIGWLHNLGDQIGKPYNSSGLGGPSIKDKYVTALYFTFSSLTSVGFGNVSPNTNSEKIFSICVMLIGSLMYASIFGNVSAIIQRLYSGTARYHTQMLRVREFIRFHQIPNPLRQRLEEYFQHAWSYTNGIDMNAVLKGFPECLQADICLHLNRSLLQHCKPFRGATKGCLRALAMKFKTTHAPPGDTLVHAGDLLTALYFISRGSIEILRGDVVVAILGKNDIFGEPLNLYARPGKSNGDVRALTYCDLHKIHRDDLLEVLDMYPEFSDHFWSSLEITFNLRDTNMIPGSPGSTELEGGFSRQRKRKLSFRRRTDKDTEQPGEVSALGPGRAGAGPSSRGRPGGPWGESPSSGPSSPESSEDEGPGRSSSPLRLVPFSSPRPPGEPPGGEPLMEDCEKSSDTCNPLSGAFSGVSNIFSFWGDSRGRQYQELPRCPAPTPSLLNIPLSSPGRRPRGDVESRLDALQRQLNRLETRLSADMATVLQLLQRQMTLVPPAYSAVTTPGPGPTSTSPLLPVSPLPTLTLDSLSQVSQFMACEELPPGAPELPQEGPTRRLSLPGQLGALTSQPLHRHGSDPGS
Text: Test Example 5: hERG potassium channel inhibitory activity assay
1. Study objective: to determine the inhibitory effect of the compound on the hERG potassium channel activity. 2. Experimental instruments and reagents: 2.1 Reagents
3. Experimental methods • 3.1 Cell culture: The CHO cells stably expressing the hERG potassium channel (CHO-hERG) used in the experiment were obtained from Sophion Bioscience (Ballerup, Denmark), and passaged and cryopreserved at WuXi AppTec Co., Ltd. in Shanghai. The CHO-hERG cells were cultured and passaged in Ham's F-12 medium containing 1 × GlutaMAX, 10% fetal bovine serum, 100 µg/mL G418 and 100 µg/mL hygromycin B at 37°C with 5% CO2. • 3.2 Preparation of intracellular and extracellular solutions: The extracellular solution was prepared once a month, and aliquoted and stored in 1 L storage bottles. The intracellular solution was prepared once every three months, and aliquoted and cryopreserved at -20°C. The intracellular solution was thawed in a 37°C water bath before the experiment and then placed in an ice bath for later use. • 3.3 Preparation of compounds: The compounds were dissolved in 100% DMSO (Sigma-Aldrich, D2650) to prepare 10 mM or 30 mM stock solutions. Before the experiment, the stock solutions of the test compounds were diluted with DMSO to prepare solutions 1000-fold or 333-fold higher than the desired test concentrations, and then further diluted 1000-fold or 333-fold with the extracellular solution to achieve the desired concentrations. • 3.4 Cell preparation: The CHO-hERG cells used in the experiment were cultured for at least two days. When the cell density reached more than 75%, the cells were digested with TrypLE, then resuspended in the extracellular solution, and centrifuged. The supernatant was discarded, and then the cells were further resuspended in 2 mL of extracellular solution for later use. 4. Experimental data processing: In data processing, the peak tail current was baseline-corrected when evaluating the hERG blocking effect. The effect of each compound at various concentrations was expressed as the inhibition rate of the tail current. IC50 values were obtained by fitting the data to the Hill equation: I/Icontrol = Bottom + (Top−Bottom)/(1+10^(∧)((LogIC50−X)*HillSlope)) [formula] • Top: maximum effect; Bottom: minimum effect; Hillslope: slope; X: concentration of the test compound. • IC50: half-maximal inhibitory concentration of the test compound on hERG. […] 5.

[3] = Pharmacokinetics in rats (plasma) after oral administration; conditions: rat, 5 mg/kg
Description: as §3, §4, §5

[4] = Homo sapiens, HCT-116, MTAP Knockout HCT116 cells
[5] = Homo sapiens, HCT-116, HCT116 wild-type cells

Compound `CNN(C(=O)c1cc2c3c(c(N)nc2cn1)COC3)C1COc2cc(S(F)(F)(F)(F)F)ccc21` (single isomer, unassigned) [Example 372-P1] has a Selectivity [1] of 69, an IC50 [1, 4] of 12 nM and an IC50 (HCT116 wild-type cells; [5]) of 819 nM. The AUC(0-inf) (in vivo) was 2570 ng·h/mL, the Cmax (in vivo) was 378 ng/mL and the MRT inf (in vivo) was 4.8 h. It also gave a Tmax (in vivo) of 2.7 h, a half-life (in vivo) of 2.7 h and a ΔTm at 8 µM [2] of 11.6 °C.

In the case of `[2H]C([2H])([2H])NN(C(=O)c1cc2c(cn1)nc(N)c1cnn(C)c12)C1COCc2c1ccn1c(C(F)(F)F)cnc21` (single isomer, unassigned) [Example 391-P1], the IC50 (hERG potassium channel) is reported as greater than 30000 nM, the Selectivity [1] is reported as 14 and the IC50 ([1]; MTAP Knockout HCT116 cells) is reported as 8.8 nM. For the same compound, the IC50 (HCT116 wild-type cells; HCT116 wild-type cells) was 121 nM and the “ΔTm (°C)” value [2] was 13.02 °C.

In the case of `Cc1cc2nc(N)c3cncn3c2cc1C(=O)N(C1COCc2nc(C(F)(F)F)ccc21)N(C)C` (centres unmarked) [Example 276, 4-Amino-N',N',7-trimethyl-N-(2-(trifluoromethyl)-5,8-dihydro-6H-pyrano[3,4-b]pyridin-5-yl)imidazo[1,5-a]quinoxaline-8-carbohydrazide], the IC50 (hERG potassium channel) is reported as greater than 30000 nM and the ΔTm at 8 µM [2] is reported as 10.4 °C.

Work on `CNN(C(=O)c1cc2c3c(c(N)nc2cn1)COC3)[C@@H]1COCc2nc(C(F)(F)F)ccc21` [Example 286-P1, (S)-4-amino-N'-methyl-N-(2-trifluoromethyl-5,8-dihydro-6H-pyrano[3,4-b]pyridin-5-yl)-1,3-dihydrofuro[3,4-c][1,7]naphthyridine-8-carbohydrazide] yielded an AUC(0-inf) ([3]; male, SD) of 1280 ng·h/mL, a Cmax ([3]; male, SD) of 480 ng/mL and an MRT inf ([3]; male, SD) of 2.5 h. The Tmax ([3]; male, SD) was 0.5 h, the half-life ([3]; male, SD) was 2.1 h and the IC50 (hERG potassium channel) was greater than 30000 nM. For the same compound, the Selectivity [1] was 118, the IC50 [1, 4] was 23 nM and the IC50 (HCT116 wild-type cells; [5]) was 2680 nM. It also gave a ΔTm at 8 µM [2] of 11.1 °C.

For `[2H]C([2H])([2H])NN(C(=O)c1cc2c3c(c(N)nc2cn1)COC3)C1COCc2nc(C(F)(F)F)ccc21` (centres unmarked) [Example 321], the IC50 (hERG potassium channel) was greater than 30000 nM and the ΔTm at 8 µM [2] was 10.9 °C.

Compound `[2H]C([2H])([2H])NN(C(=O)c1cc2c3c(c(N)nc2cn1)[C@@H](C)OC3)[C@@H]1COCc2c1ccn1c(C(F)(F)F)cnc21` [Example 362-P1] has an AUC(0-inf) [3] of 8180 ng·h/mL, a Cmax [3] of 2750 ng/mL and an MRT inf [3] of 2.8 h. The Tmax [3] was 0.7 h, the half-life [3] was 2.7 h and the IC50 (hERG potassium channel) was greater than 30000 nM. For the same compound, the Selectivity [1] was 68, the IC50 [1, 4] was 6.7 nM and the IC50 (HCT116 wild-type cells; [5]) was 450 nM. The ΔTm at 8 µM [2] was 12 °C.

For `[2H]C([2H])([2H])NN(C(=O)c1cc2c3c(c(N)nc2cn1)COC3)C1COCc2c1ccn1c(C(F)(F)F)cnc21` (centres unmarked) [Example 371, 4-Amino-N'-(methyl-d3)-N-(3-(trifluoromethyl)-7,10-dihydro-8H-imidazo[1,2-a]pyrano[3,4-c]pyridin-7-yl)-1,3-dihydrofuro[3,4-c][1,7]naphthyridine-8-carbohydrazide], the AUC(0-inf) ([3]; male, SD) was 3730 ng·h/mL, the Cmax ([3]; male, SD) was 1050 ng/mL and the MRT inf ([3]; male, SD) was 4.4 h. For the same compound, the Tmax ([3]; male, SD) was 0.5 h, the half-life ([3]; male, SD) was 4.4 h and the IC50 (hERG potassium channel) was greater than 30000 nM. The ΔTm at 8 µM [2] was 10.6 °C.

With `CNN(C(=O)c1cc2c3c(c(N)nc2cn1)COC3)[C@@H]1COCc2nc(S(F)(F)(F)(F)F)ccc21` [Example 374, 4-Amino-N'-methyl-N-(2-pentafluorosulphanyl-5,8-dihydro-6H-pyrano[3,4-b]pyridin-5-yl)-1,3-dihydrofuran[3,4-c][1,7]naphthyridine-8-hydrazide] the AUC(0-inf) [3] was 1180 ng·h/mL, the Cmax [3] was 652 ng/mL and the MRT inf [3] was 1.9 h. The Tmax [3] was 0.5 h, the half-life [3] was 1.9 h and the IC50 (hERG potassium channel) was greater than 30000 nM. The Selectivity [1] was 23, the IC50 [1, 4] was 13 nM and the IC50 (HCT116 wild-type cells; [5]) was 303 nM. For the same compound, the ΔTm at 8 µM [2] was 12.3 °C.

`[2H]C([2H])([2H])NN(C(=O)c1cc2c(cn1)nc(N)c1cnn(C)c12)C1COCc2c1ccn1c(C(F)(F)F)cnc21` (centres unmarked) [Example 391, 4-Amino-1-methyl-N'-(methyl-d3)-N-(3-trifluoromethyl-7,10-dihydro-8H-imidazo[1,2-a]pyrano[3,4-c]pyridin-7-yl)-1H-pyrazolo[4,3-c][1,7]naphthyridine-8-carbohydrazide] showed an AUC(0-inf) ([3]; male, SD) of 11900 ng·h/mL, a Cmax ([3]; male, SD) of 1690 ng/mL and an MRT inf ([3]; male, SD) of 5.8 h. For the same compound, the Tmax ([3]; male, SD) was 1.5 h, the half-life ([3]; male, SD) was 4.4 h and the IC50 (hERG potassium channel) was greater than 30000 nM. For the same compound, the Selectivity [1] was 28, the IC50 [1, 4] was 13 nM and the IC50 (HCT116 wild-type cells; HCT116 wild-type cells) was 358 nM. It also gave a ΔTm at 8 µM [2] of 12.7 °C.
